# Laboratory results published in patent publication US12252524B2, “GIP/GLP1 co-agonist compounds” (Eli Lilly and Company, priority 2018, dated 2025).
# Numbered stars: 1 amine (or outer) side, 2 acyl side, 3 side chain; on linkers, the order of the positions; unused ones are H or OH. Square brackets hold non-standard residues; d marks the D form. Side chains are listed from the residue outwards. Peptide text beside a SMILES is read from it. * marks the point of attachment. C20 diacid = O=C(O)CCCCCCCCCCCCCCCCCCC(=O)*; γGlu = O=C(O)[C@H](CCC(=O)[*:2])N[*:1]; αMeL = CC(C)C[C@](C)(N)C(=O)O; AEEA = NCCOCCOCC(=O)O; Aib = CC(C)(N)C(=O)O
# Tests used:
# [1] = biological target: T1, gastric inhibitory peptide receptor (GIPR) (Homo sapiens, UniProt P48546); assay: cAMP pharmacological functional assay in presence of casein, hGIPR; assay type: cell-based; conditions: HEK293 cells expressing hGIPR, 0.1% Casein, geometric mean; read-out: hGIPR cAMP Rel EC50 nM (SEM, n)
# T1 sequence (P48546 22-466): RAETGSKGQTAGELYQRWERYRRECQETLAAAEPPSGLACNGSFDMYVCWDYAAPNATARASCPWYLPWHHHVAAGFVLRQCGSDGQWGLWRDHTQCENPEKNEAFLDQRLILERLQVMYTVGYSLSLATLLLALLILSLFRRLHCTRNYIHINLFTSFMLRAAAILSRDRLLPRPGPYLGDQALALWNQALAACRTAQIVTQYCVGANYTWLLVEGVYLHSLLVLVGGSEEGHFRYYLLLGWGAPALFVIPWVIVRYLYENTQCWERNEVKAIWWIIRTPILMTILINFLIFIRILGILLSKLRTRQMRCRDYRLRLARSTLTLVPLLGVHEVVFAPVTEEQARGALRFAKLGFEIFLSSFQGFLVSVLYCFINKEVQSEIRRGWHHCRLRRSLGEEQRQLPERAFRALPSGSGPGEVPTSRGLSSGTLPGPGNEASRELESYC
# [2] = biological target: human GLP-1R (Homo sapiens, UniProt P43220); assay: [125I]-GLP-1 binding (SPA), human GLP-1 receptor; parameters: expressed in transfected cells; crude membranes; conditions: read-out: hGLP1R Ki, (nM) (SEM, n)
# In short: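 Ki values are geometric means with SEM over independent replicates on different days, derived from IC50s fitted by four-parameter nonlinear regression. The assay used crude cell membranes in HEPES buffer, pH 7.4, containing CaCl2, MgCl2, bacitracin and TWEEN-20.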
# [3] = biological target: human GLP-1 receptor (GLP-1R) (Homo sapiens, UniProt P43220); assay: cAMP pharmacological functional assay in presence of casein, hGLP-1R; assay type: cell-based; conditions: HEK293 cells expressing hGLP-1R, 0.1% Casein, geometric mean; read-out: hGLP1R cAMP Rel EC50 nM (SEM, n)
# [4] = biological target: T2, human Gcg receptor (Homo sapiens, UniProt P47871); assay: [125I]-Glucagon binding (SPA), human Gcg receptor; conditions: read-out: hGLcgR Ki, nM (SEM, n)
# T2 construct: expressed in transfected cells; crude membranes
# In short: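 Scintillation counts are taken after membranes and WGA beads incubate and settle for 12 hours at room temperature. Buffer is 25 mM HEPES, pH 7.4, with CaCl2, MgCl2, bacitracin and Tween-20. Ki values, from four-parameter IC50 fits, are geometric means over independent days.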
# [5] = biological target: T3, human GIP receptor (Homo sapiens, UniProt P48546); assay: [125I]-GIP binding (SPA), human GIP receptor; conditions: read-out: hGIPR Ki, nM (SEM, n)
# T3 construct: expressed in transfected cells; crude membranes
# T3 sequence (P48546 22-466): T1 sequence (P48546 22-466)
# T2 sequence (P47871 26-477): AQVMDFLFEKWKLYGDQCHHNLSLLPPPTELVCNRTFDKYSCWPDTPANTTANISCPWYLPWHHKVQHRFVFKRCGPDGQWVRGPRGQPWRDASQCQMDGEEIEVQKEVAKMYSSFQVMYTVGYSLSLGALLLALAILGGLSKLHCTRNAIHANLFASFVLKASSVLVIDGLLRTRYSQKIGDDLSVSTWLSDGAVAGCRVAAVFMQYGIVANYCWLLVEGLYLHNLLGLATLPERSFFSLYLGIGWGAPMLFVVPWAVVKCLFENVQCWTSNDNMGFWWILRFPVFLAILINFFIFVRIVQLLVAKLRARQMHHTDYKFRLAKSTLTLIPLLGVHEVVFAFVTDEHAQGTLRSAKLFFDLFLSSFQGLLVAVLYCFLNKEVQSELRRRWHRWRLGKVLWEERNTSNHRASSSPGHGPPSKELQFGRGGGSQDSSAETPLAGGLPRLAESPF
# human GLP-1R, sequence (P43220 24-463): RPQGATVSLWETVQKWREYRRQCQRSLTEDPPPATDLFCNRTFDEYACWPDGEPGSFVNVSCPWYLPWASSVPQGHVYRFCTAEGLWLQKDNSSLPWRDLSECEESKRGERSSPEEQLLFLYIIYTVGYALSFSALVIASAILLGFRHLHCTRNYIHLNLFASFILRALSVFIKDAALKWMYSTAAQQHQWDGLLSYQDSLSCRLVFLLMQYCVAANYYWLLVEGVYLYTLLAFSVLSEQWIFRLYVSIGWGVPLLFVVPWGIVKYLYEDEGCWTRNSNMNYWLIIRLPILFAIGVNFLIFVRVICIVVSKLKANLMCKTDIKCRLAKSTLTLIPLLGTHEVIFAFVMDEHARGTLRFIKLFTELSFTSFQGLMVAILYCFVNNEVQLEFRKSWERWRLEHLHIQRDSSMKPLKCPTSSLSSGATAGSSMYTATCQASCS
# human GLP-1 receptor (GLP-1R), sequence (P43220 24-463): as above
Structure (SMILES),EC50 [1] [nM],Ki [2] [nM],EC50 [3] [nM],Ki [4] [nM],Ki [5] [nM]
CC[C@H](C)[C@H](NC(=O)[C@H](CC(C)C)NC(=O)[C@H](Cc1ccc(O)cc1)NC(=O)[C@H](CCC(=O)O)NC(=O)[C@@H](NC(=O)[C@H](Cc1ccccc1)NC(=O)[C@H](C)NC(=O)C(C)(C)NC(=O)[C@H](CCC(N)=O)NC(=O)[C@H](C)NC(=O)[C@H](CCCCNC(=O)COCCOCCNC(=O)COCCOCCNC(=O)CC[C@H](NC(=O)CCCCCCCCCCCCCCCCCCC(=O)O)C(=O)O)NC(=O)[C@H](CCCCN)NC(=O)[C@H](CC(=O)O)NC(=O)[C@H](CC(C)C)NC(=O)[C@](C)(CC(C)C)NC(=O)[C@@H](NC(=O)[C@H](CO)NC(=O)[C@H](Cc1ccc(O)cc1)NC(=O)[C@H](CC(=O)O)NC(=O)[C@H](CO)NC(=O)[C@@H](NC(=O)[C@H](Cc1ccccc1)NC(=O)[C@@H](NC(=O)CNC(=O)[C@H](CCC(=O)O)NC(=O)C(C)(C)NC(=O)[C@@H](N)Cc1c[nH]cn1)[C@@H](C)O)[C@@H](C)O)[C@@H](C)CC)[C@@H](C)CC)C(=O)N[C@@H](CCC(=O)O)C(=O)NCC(=O)NCC(=O)N1CCC[C@H]1C(=O)N[C@@H](CO)C(=O)N[C@@H](CO)C(=O)NCC(=O)N[C@@H](C)C(=O)N1CCC[C@H]1C(=O)N1CCC[C@H]1C(=O)N1CCC[C@H]1C(=O)N[C@@H](CO)C(N)=O [Example 53] (H-H[Aib]EGTFTSDYSI[αMeL]LDKK([AEEA-AEEA-γGlu-C20 diacid])AQ[Aib]AFIEYLIEGGPSSGAPPPS-NH2; N-terminus assumed),0.628,1.23,0.0339,216,0.188
CC[C@H](C)[C@H](NC(=O)[C@H](CC(C)C)NC(=O)[C@H](Cc1ccc(O)cc1)NC(=O)[C@H](CCC(=O)O)NC(=O)[C@@H](NC(=O)[C@H](Cc1ccccc1)NC(=O)[C@H](C)NC(=O)[C@H](Cc1c[nH]cn1)NC(=O)[C@H](CCC(N)=O)NC(=O)[C@H](C)NC(=O)[C@H](CCCCNC(=O)COCCOCCNC(=O)COCCOCCNC(=O)CC[C@H](NC(=O)CCCCCCCCCCCCCCCCCCC(=O)O)C(=O)O)NC(=O)[C@H](CCCCN)NC(=O)[C@H](CC(=O)O)NC(=O)[C@H](CC(C)C)NC(=O)[C@](C)(CC(C)C)NC(=O)[C@@H](NC(=O)[C@H](CO)NC(=O)[C@H](Cc1ccc(O)cc1)NC(=O)[C@H](CC(=O)O)NC(=O)[C@H](CO)NC(=O)[C@@H](NC(=O)[C@H](Cc1ccccc1)NC(=O)[C@@H](NC(=O)CNC(=O)[C@H](CCC(=O)O)NC(=O)C(C)(C)NC(=O)[C@@H](N)Cc1c[nH]cn1)[C@@H](C)O)[C@@H](C)O)[C@@H](C)CC)[C@@H](C)CC)C(=O)N[C@@H](CCC(=O)O)C(=O)NCC(=O)NCC(=O)N1CCC[C@H]1C(=O)N[C@@H](CO)C(=O)N[C@@H](CO)C(=O)NCC(=O)N[C@@H](C)C(=O)N1CCC[C@H]1C(=O)N1CCC[C@H]1C(=O)N1CCC[C@H]1C(=O)N[C@@H](CO)C(N)=O [Example 54] (H-H[Aib]EGTFTSDYSI[αMeL]LDKK([AEEA-AEEA-γGlu-C20 diacid])AQHAFIEYLIEGGPSSGAPPPS-NH2),1.57,1.66,0.0242,333,0.965
CC[C@H](C)[C@H](NC(=O)[C@H](CC(C)C)NC(=O)[C@H](Cc1ccc(O)cc1)NC(=O)[C@H](CCC(=O)O)NC(=O)[C@@H](NC(=O)[C@H](Cc1ccccc1)NC(=O)[C@H](C)NC(=O)[C@H](Cc1c[nH]cn1)NC(=O)[C@H](CCC(N)=O)NC(=O)[C@H](C)NC(=O)[C@H](CCCCNC(=O)COCCOCCNC(=O)COCCOCCNC(=O)CC[C@H](NC(=O)CCCCCCCCCCCCCCCCCCC(=O)O)C(=O)O)NC(=O)[C@H](CCC(=O)O)NC(=O)[C@H](CC(=O)O)NC(=O)[C@H](CC(C)C)NC(=O)[C@](C)(CC(C)C)NC(=O)[C@@H](NC(=O)[C@H](CO)NC(=O)[C@H](Cc1ccc(O)cc1)NC(=O)[C@H](CC(=O)O)NC(=O)[C@H](CO)NC(=O)[C@@H](NC(=O)[C@H](Cc1ccccc1)NC(=O)[C@@H](NC(=O)CNC(=O)[C@H](CCC(=O)O)NC(=O)C(C)(C)NC(=O)[C@@H](N)Cc1c[nH]cn1)[C@@H](C)O)[C@@H](C)O)[C@@H](C)CC)[C@@H](C)CC)C(=O)N[C@@H](CCC(=O)O)C(=O)NCC(=O)NCC(=O)N1CCC[C@H]1C(=O)N[C@@H](CO)C(=O)N[C@@H](CO)C(=O)NCC(=O)N[C@@H](C)C(=O)N1CCC[C@H]1C(=O)N1CCC[C@H]1C(=O)N1CCC[C@H]1C(=O)N[C@@H](CO)C(N)=O [Example 55] (H-H[Aib]EGTFTSDYSI[αMeL]LDEK([AEEA-AEEA-γGlu-C20 diacid])AQHAFIEYLIEGGPSSGAPPPS-NH2),5.45,7.29,0.0286,> 1100,6.24
CC[C@H](C)[C@H](NC(=O)[C@H](CC(C)C)NC(=O)[C@H](Cc1ccc(O)cc1)NC(=O)[C@H](CCC(=O)O)NC(=O)[C@@H](NC(=O)[C@H](Cc1ccccc1)NC(=O)[C@H](C)NC(=O)[C@H](Cc1c[nH]cn1)NC(=O)[C@H](CCC(N)=O)NC(=O)[C@H](C)NC(=O)[C@H](CCCCNC(=O)COCCOCCNC(=O)COCCOCCNC(=O)CC[C@H](NC(=O)CCCCCCCCCCCCCCCCCCC(=O)O)C(=O)O)NC(=O)[C@H](CCC(=O)O)NC(=O)[C@H](CC(=O)O)NC(=O)[C@H](CC(C)C)NC(=O)[C@](C)(CC(C)C)NC(=O)[C@@H](NC(=O)[C@H](CO)NC(=O)[C@H](Cc1ccc(O)cc1)NC(=O)[C@H](CC(=O)O)NC(=O)[C@H](CO)NC(=O)[C@@H](NC(=O)[C@H](Cc1ccccc1)NC(=O)[C@@H](NC(=O)CNC(=O)[C@H](CCC(=O)O)NC(=O)C(C)(C)NC(=O)[C@@H](N)Cc1ccc(O)cc1)[C@@H](C)O)[C@@H](C)O)[C@@H](C)CC)[C@@H](C)CC)C(=O)N[C@@H](CCC(=O)O)C(=O)NCC(=O)NCC(=O)N1CCC[C@H]1C(=O)N[C@@H](CO)C(=O)N[C@@H](CO)C(=O)NCC(=O)N[C@@H](C)C(=O)N1CCC[C@H]1C(=O)N1CCC[C@H]1C(=O)N1CCC[C@H]1C(=O)N[C@@H](CO)C(N)=O [Example 56] (H-Y[Aib]EGTFTSDYSI[αMeL]LDEK([AEEA-AEEA-γGlu-C20 diacid])AQHAFIEYLIEGGPSSGAPPPS-NH2),0.167,10.3,0.136,> 1060,0.148
CC[C@H](C)[C@H](NC(=O)[C@H](CC(C)C)NC(=O)[C@H](Cc1ccc(O)cc1)NC(=O)[C@H](CCC(=O)O)NC(=O)[C@@H](NC(=O)[C@H](Cc1ccccc1)NC(=O)[C@H](C)NC(=O)C(C)(C)NC(=O)[C@H](CCC(N)=O)NC(=O)[C@H](C)NC(=O)[C@H](CCCCNC(=O)COCCOCCNC(=O)COCCOCCNC(=O)CC[C@H](NC(=O)CCCCCCCCCCCCCCCCCCC(=O)O)C(=O)O)NC(=O)[C@H](CCCCN)NC(=O)[C@H](CC(=O)O)NC(=O)[C@H](CC(C)C)NC(=O)[C@H](CC(C)C)NC(=O)[C@@H](NC(=O)[C@H](CO)NC(=O)[C@H](Cc1ccc(O)cc1)NC(=O)[C@H](CC(=O)O)NC(=O)[C@H](CO)NC(=O)[C@@H](NC(=O)[C@](C)(Cc1ccccc1)NC(=O)[C@@H](NC(=O)CNC(=O)[C@H](CCC(=O)O)NC(=O)C(C)(C)NC(=O)[C@@H](N)Cc1ccc(O)cc1)[C@@H](C)O)[C@@H](C)O)[C@@H](C)CC)[C@@H](C)CC)C(=O)N[C@@H](CCC(=O)O)C(=O)NCC(=O)NCC(=O)N1CCC[C@H]1C(=O)N[C@@H](CO)C(=O)N[C@@H](CO)C(=O)NCC(=O)N[C@@H](C)C(=O)N1CCC[C@H]1C(=O)N1CCC[C@H]1C(=O)N1CCC[C@H]1C(=O)N[C@@H](CO)C(N)=O [Example 57],0.0849,3,0.0668,26.1,0.0583
